ChEMBL document CHEMBL1155124, “Synthesis and activity of N-cyanoguanidine-piperazine P2X7 antagonists” (Bioorg Med Chem Lett, 2008)
pIC50: −log10 of the molar value. Values after ≈ are worked out from the molar mass of the structure shown. Active and inactive are the calls of the source. The rule behind the calls is not given here.

Assays:
Blood [1] = assay: Inhibition of IL1-beta release in LPS/ATP stimulated human whole blood; assay type: functional, tissue-based
P2X purinoceptor 7 [2] = molecular target: T1, P2X purinoceptor 7 (Homo sapiens, UniProt Q99572); assay: Antagonist activity at human recombinant P2X7 receptor assessed as inhibition of BzATP induced calcium flux by FLIPR assay; assay type: functional
T1 sequence (Q99572 whole entry): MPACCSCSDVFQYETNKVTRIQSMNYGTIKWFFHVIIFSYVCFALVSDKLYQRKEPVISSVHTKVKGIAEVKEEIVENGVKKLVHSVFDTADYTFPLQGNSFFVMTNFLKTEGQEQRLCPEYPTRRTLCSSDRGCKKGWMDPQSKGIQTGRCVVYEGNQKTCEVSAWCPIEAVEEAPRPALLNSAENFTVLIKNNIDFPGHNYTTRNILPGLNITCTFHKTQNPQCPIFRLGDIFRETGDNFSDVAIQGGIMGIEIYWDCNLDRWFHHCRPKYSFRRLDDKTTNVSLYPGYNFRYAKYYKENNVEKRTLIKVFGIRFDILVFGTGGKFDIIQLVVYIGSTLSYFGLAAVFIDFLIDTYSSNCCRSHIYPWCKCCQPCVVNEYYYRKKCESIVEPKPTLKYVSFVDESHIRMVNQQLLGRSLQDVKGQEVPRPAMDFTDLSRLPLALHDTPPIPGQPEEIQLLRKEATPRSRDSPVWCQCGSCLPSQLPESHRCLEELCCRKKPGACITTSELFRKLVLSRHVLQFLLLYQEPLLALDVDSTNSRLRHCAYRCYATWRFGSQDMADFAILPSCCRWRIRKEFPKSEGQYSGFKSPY

P2X purinoceptor 7 [3] = molecular target: T2, P2X purinoceptor 7 (Rattus norvegicus, UniProt Q64663); assay: Antagonist activity at rat recombinant P2X7 receptor assessed as inhibition of BzATP induced calcium flux by FLIPR assay; assay type: functional
T2 sequence (Q64663 whole entry): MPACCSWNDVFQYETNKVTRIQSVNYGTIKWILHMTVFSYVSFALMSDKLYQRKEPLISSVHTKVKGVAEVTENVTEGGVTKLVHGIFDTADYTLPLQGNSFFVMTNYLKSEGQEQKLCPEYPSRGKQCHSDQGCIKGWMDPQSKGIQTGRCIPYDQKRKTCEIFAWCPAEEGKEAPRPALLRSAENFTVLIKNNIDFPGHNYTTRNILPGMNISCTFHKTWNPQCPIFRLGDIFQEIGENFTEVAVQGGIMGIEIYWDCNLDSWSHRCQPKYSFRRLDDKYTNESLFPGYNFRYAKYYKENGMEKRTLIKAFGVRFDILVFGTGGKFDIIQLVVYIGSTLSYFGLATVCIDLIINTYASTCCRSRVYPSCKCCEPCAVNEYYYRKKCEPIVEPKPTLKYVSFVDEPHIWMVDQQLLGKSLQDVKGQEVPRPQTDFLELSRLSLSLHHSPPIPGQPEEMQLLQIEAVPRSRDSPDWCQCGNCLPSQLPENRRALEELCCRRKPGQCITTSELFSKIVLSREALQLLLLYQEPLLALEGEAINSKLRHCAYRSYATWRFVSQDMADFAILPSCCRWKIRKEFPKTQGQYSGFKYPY

[4] = Plasma clearance in rat at 5 mg/kg, iv; assay type: ADME, organism-based; design: dose 5 mg/kg, route intravenous
[5] = Volume of distribution at steady state in rat at 5 mg/kg, iv; assay type: ADME, organism-based; design: dose 5 mg/kg, route intravenous; conditions: in vivo, read-out: Vdss
[6] = Metabolic stability in rat liver microsomes assessed as compound remaining after 1 hr; assay type: ADME, Microsome; conditions: read-out: Stability
[7] = Half life in rat at 5 mg/kg, iv; assay type: ADME, organism-based; design: dose 5 mg/kg, route intravenous; conditions: in vivo
[8] = Aqueous solubility of the compound; assay type: physicochemical; conditions: buffer
[9] = Oral bioavailability in rat; assay type: ADME, organism-based; conditions: in vivo
[10] = molecular target: P2Y purinoceptor 2 (Homo sapiens) (UniProt P41231); assay: Antagonist activity at P2Y2 receptor at 10 uM; assay type: functional
[11] = molecular target: P2X2/P2X3 heterotrimeric receptor (Homo sapiens) (UniProt Q9UBL9+P56373); assay: Antagonist activity at P2X2/3 receptor at 10 uM; assay type: functional
[12] = molecular target: T3, P2X purinoceptor 3 (Homo sapiens) (UniProt P56373); assay: Antagonist activity at P2X3 receptor at 10 uM; assay type: functional
T3 sequence (whole entry): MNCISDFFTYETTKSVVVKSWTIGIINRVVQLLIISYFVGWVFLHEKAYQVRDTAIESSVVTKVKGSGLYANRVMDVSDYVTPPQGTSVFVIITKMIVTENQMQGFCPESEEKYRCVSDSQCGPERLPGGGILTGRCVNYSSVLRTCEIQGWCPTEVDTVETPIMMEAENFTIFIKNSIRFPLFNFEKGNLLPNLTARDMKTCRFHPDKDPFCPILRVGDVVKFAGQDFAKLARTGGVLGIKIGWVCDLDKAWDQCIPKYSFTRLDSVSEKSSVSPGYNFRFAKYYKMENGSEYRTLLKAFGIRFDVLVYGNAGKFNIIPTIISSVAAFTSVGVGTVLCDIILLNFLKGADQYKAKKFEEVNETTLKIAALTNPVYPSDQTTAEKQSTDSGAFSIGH

[13] = molecular target: T4, P2X purinoceptor 4 (Homo sapiens) (UniProt Q99571); assay: Antagonist activity at P2X4 receptor at 10 uM; assay type: functional
T4 sequence (whole entry): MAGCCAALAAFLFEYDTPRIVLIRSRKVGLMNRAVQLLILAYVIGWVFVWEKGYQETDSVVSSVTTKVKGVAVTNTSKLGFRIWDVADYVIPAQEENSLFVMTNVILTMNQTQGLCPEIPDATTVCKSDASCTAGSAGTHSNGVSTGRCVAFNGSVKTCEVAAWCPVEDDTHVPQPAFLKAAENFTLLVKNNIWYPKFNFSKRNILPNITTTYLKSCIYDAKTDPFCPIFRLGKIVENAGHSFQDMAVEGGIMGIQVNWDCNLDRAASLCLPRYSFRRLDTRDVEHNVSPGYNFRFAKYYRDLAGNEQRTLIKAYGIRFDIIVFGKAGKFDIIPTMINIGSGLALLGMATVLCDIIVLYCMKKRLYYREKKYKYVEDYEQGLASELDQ

Blood [14] = assay: Inhibition of IL18 release in LPS/ATP stimulated human whole blood; assay type: functional, tissue-based
[15] = Metabolic stability in rat liver microsomes assessed as compound remaining after 25 mins; assay type: ADME, Microsome; conditions: read-out: Stability

Chain of P2Y purinoceptor 2 (Homo sapiens) (P41231 whole entry): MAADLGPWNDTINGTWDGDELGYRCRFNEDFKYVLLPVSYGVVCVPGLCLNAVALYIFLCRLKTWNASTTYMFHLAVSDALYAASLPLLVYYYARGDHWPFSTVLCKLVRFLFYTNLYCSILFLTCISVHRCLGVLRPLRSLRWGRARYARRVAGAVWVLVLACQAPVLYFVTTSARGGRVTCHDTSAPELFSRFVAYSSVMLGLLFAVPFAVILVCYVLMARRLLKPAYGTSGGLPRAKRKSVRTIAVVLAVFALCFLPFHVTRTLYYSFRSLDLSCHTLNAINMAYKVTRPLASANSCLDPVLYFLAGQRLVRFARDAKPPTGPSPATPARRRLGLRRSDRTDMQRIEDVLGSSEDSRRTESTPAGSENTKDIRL

| SMILES | pIC50 (Blood [1]) | pIC50 (P2X purinoceptor 7 [2]) | pIC50 (P2X purinoceptor 7 [3]) | also measured |
| --- | --- | --- | --- | --- |
| CC(C)C1CN(C(=O)Nc2cccc(F)c2)CCN1C(=Nc1cccc2c1CCCN2)NC#N (configuration not stated) | 6.34 | 7.22 |  |  |
| Cc1ccccc1N=C(NC#N)N1CCN(Cc2ccc(Cl)cc2)C(c2ccccc2)C1 (configuration not stated) |  | < 5.00 | < 5.00 |  |
| Cc1ccccc1N=C(NC#N)N1CCN(S(=O)(=O)c2ccc(Cl)cc2)C(c2ccccc2)C1 (configuration not stated) |  | 6.27 | 5.39 |  |
| Cc1ccccc1NC(=O)N1CCN(C(=O)Nc2ccc(Cl)cc2)C(c2ccccc2)C1 (configuration not stated) |  | 6.11 | 6.21 |  |
| Cc1ccccc1N/C(=N\C#N)N1CCN(C(=O)Nc2ccc(Cl)cc2)C(C(C)C)C1 (configuration not stated) | 6.01 | 6.95 | 6.96 |  |
| CC(C)C1CN(C(=O)Nc2ccc(Cl)cc2)CCN1/C(=N/C#N)Nc1cccc2[nH]ccc12 (configuration not stated) | 6.33 | 7.35 | 6.96 |  |
| N#C/N=C(\Nc1cccnc1)N1CCN(C(=O)Nc2ccc(Cl)cc2)C(c2ccccc2)C1 (configuration not stated) |  | 5.88 | 5.69 |  |
| Cc1ccccc1N/C(=C/[N+](=O)[O-])N1CCN(C(=O)Nc2ccc(Cl)cc2)C(c2ccccc2)C1 (configuration not stated) |  | 6.51 | 5.51 |  |
| COc1ccc(CC(=O)N2CCN(C(=Nc3ccccc3C)NC#N)CC2c2ccccc2)cc1OC (configuration not stated) |  | 6.20 |  |  |
| Cc1ccc2c(N=C(NC#N)N3CCN(C(=O)Nc4ccc(Cl)cc4)CC3C(C)C)cccc2n1 (configuration not stated) |  | 7.03 | 6.82 | clearance [4]: 23.3 mL/min/kg; Vd [5]: 11.8 L/kg; remaining at 1 h [6]: 74%; half-life [7]: 4.4 h; solubility [8]: 19 µg/mL (≈ 38.8 µM); bioavailability [9]: 5% |
| Cc1ccccc1N=C(NC#N)N1CCN(C(=O)N(C)c2ccc(Cl)cc2)C(c2ccccc2)C1 (configuration not stated) |  | 5.99 | 6.54 |  |
| Cc1ccc2c(N/C(=N\C#N)N3CCN(C(=O)Nc4ccc(Cl)cc4)CC3C(C)C)cccc2n1 (configuration not stated) | 6.92 |  |  | Activity [10]: inactive; Activity [11]: inactive; Activity [12]: inactive; Activity [13]: inactive |
| Cc1ccccc1N/C(=N/C(N)=O)N1CCN(C(=O)Nc2ccc(Cl)cc2)C(c2ccccc2)C1 (configuration not stated) |  | 5.19 | 4.99 |  |
| Cc1ccccc1N=C(NC#N)N1CCN(C(=O)Nc2ccc(Cl)cc2)C(c2ccccc2)C1 (configuration not stated) | 5.92 | 6.88 | 7.02 | clearance [4]: 68.3 mL/min/kg; Vd [5]: 5.3 L/kg; half-life [7]: 0.9 h; pIC50 (Blood [14]): 5.90 |
| CC(C)C1CN(C(=O)Nc2ccc(Cl)cc2)CCN1/C(=N/C#N)Nc1cccc2nc(F)ccc12 (configuration not stated) | 5.58 |  |  | remaining at 1 h [6]: 60% |
| CC(C)C1CN(C(=Nc2cccc3ncccc23)NC#N)CCN1C(=O)Nc1ccc(Cl)cc1 (configuration not stated) | 6.06 | 7.17 | 7.03 |  |
| CC(C)C1CN(C(=O)Nc2ccc(Cl)cc2)CCN1C(=Nc1cccc2c1CCNC2)NC#N (configuration not stated) | 6.68 | 6.96 | 6.74 |  |
| Cc1ccccc1N=C(NC#N)N1CCN(C(=O)Nc2ccc(Cl)cc2)CC1C(C)C (configuration not stated) |  | 7.22 | 6.90 |  |
| Cc1ccc(N/C(=N\C#N)N2CCN(C(=O)Nc3ccc(Cl)cc3)CC2C(C)C)c2cccnc12 (configuration not stated) |  |  |  | remaining at 1 h [6]: 64% |
| CC(C)C1CN(C(=O)Nc2cccc(F)c2)CCN1C(=Nc1cccc2occc12)NC#N (configuration not stated) |  | 4.60 |  |  |
| COc1ccc(NC(=O)N2CCN(C(=Nc3ccccc3C)NC#N)CC2c2ccccc2)cc1OC (configuration not stated) |  | 7.60 | 6.75 |  |
| Cn1cnc2c(N=C(NC#N)N3CCN(C(=O)Nc4ccc(Cl)cc4)C(c4ccccc4)C3)cccc21 (configuration not stated) |  | 5.78 | 5.28 |  |
| N#CNC(=Nc1cccc2[nH]ccc12)N1CCN(C(=O)Nc2ccc(Cl)cc2)C(c2ccccc2)C1 (configuration not stated) | 4.91 | 6.89 | 7.25 |  |
| CC(C)C1CN(C(=O)Nc2ccc(Cl)cc2)CCN1C(=Nc1cccc2ncccc12)NC#N (configuration not stated) | 6.92 | 7.40 | 7.24 | remaining at 25 min [15]: 43%; clearance [4]: 53.3 mL/min/kg; remaining at 1 h [6]: 43% |
| CN(C)Cc1ccccc1N=C(NC#N)N1CCN(C(=O)Nc2ccc(Cl)cc2)C(c2ccccc2)C1 (configuration not stated) |  | 6.32 | 5.97 |  |
| CC(C)C1CN(C(=O)Nc2cccc(F)c2)CCN1C(=Nc1cccc2[nH]ncc12)NC#N (configuration not stated) | 5.80 | 6.60 |  |  |
